Data published in patent US20060276478A1, “Pyrazolopyrimidines” (priority 2003, published 2006).
Structures can show the parent of a compound that is named as a salt.

Assay: logP determination by HPLC (EEC directive 79/831 Annex V. A8)
Type: physicochemical
Details: gradient method
Description: logP values are determined in accordance with EEC directive 79/831 Annex V. A8 by HPLC (gradient method, acetonitrile/0.1% aqueous phosphoric acid). Preparation of Starting Materials

[1] = HPLC (gradient, acetonitrile/0.1% aqueous phosphoric acid)

Row | chromatographic logP [1] | SMILES | other results
1 | – | CC(Nc1c(-c2ccc(F)cc2Cl)c(Cl)nc2c(C(=N)N)cnn12)C(C)(C)C (single isomer, unassigned) [Example 4, hydrochloride] | logP (acetonitrile/0.1% aqueous phosphoric acid, hydrochloride): 2.58
2 | 0.19 | N#Cc1cnn2c(O)c(-c3c(F)cccc3Cl)c(O)nc12 [Example 39] | –
3 | 3.49 | N#Cc1cnn2c(Cl)c(-c3ccc(F)cc3Cl)c(Cl)nc12 [Example 40, 3-cyano-5,7-dichloro-6-(2-chloro-4-fluorophenyl)pyrazolo[1,5-a]pyrimidine] | –
4 | 4.78 | CC(Nc1c(-c2ccc(F)cc2Cl)c(Cl)nc2c(C#N)cnn12)C(C)(C)C (stereo not shown) [Example 37] | –
5 | – | CC(Nc1c(-c2ccc(F)cc2Cl)c(Cl)nc2c(C=NNc3ccc([N+](=O)[O-])cc3[N+](=O)[O-])cnn12)C(C)(C)C (stereo not shown) [Example 5, 3-(2,4-dinitriophenylhydraziminomethyl)-5-chloro-6-(2-chloro-4-fluorophenyl)-7-(3,3-dimethylbut-2-ylamino)pyrazolo[1,5-a]pyrimidine] | chromatographic logP (acetonitrile/0.1% aqueous phosphoric acid): 6.28
6 | 2.72 | CC(Nc1c(-c2ccc(F)cc2Cl)c(Cl)nc2c(C(=N)N)cnn12)C(C)(C)C (single isomer, unassigned) [Example 3, 3-iminoamide-5-chloro-6-(2-chloro-4-fluorophenyl)-7-(3,3-dimethylbut-2-ylamino)pyrazolo[1,5-a]pyrimidine hydrochloride] | –
7 | 4.59 | CC(Nc1c(-c2c(F)cccc2Cl)c(Cl)nc2c(C#N)cnn12)C(C)(C)C (stereo not shown) [Example 36, 3-cyano-5-chloro-6-(2-chloro-6-fluorophenyl)-7-(3,3-dimethylbut-2-ylamino)pyrazolo[1,5-a]pyrimidine] | –
8 | 2.55 | CC(Nc1c(-c2ccc(F)cc2Cl)c(Cl)nc2c(C(N)=NO)cnn12)C(C)(C)C (stereo not shown) [Example 2, 3-hydroximinoamido-5-chloro-6-(2-chloro-4-fluorophenyl)-7-(3,3-dimethylbut-2-ylamino)pyrazolo[1,5-a]pyrimidine] | –
9 | 3.31 | N#Cc1cnn2c(Cl)c(-c3c(F)cccc3Cl)c(Cl)nc12 [Example 41] | –
10 | 3.62 | CC(Nc1c(-c2c(F)cccc2Cl)c(Cl)nc2c(C(N)=O)cnn12)C(C)(C)C (stereo not shown) [Example 1, 3-amido-5-chloro-6-(2-chloro-6-fluorophenyl)-7-(3,3-dimethylbut-2-ylamino)pyrazolo[1,5-a]pyrimidine] | –
